Test results as given in article PMC10607100, “Anticancer and Antiphytopathogenic Activity of Fluorinated Isatins and Their Water-Soluble Hydrazone Derivatives” (International Journal of Molecular Sciences, 2023).
Like-named read-outs stand apart in the source and are kept apart here.

Legend:
Micrococcus luteus B-109 = assay: Agar-well diffusion, bactericidal activity; format: cell-based; details: Micrococcus luteus
Procedure, shortened: (§1)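 Bacteria spread on agar (BP medium; GYCa for X. campestris; pH 7.2–7.4) with 6-mm wells, each receiving 150 μL compound solution. Cultures grown at 28 °C; growth-inhibition zone width measured after 36–40 h.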

[1] = tested on: Pectobacterium atrosepticum 1043; assay: Agar-well diffusion, bactericidal activity; format: cell-based; details: Pectobacterium atrosepticum, 1043, 2 mM/L
Procedure, shortened: as §1

[2] = tested on: Pectobacterium carotovorum subsp. carotovorum MI; assay: Agar-well diffusion, bactericidal activity; format: cell-based; details: Pectobacterium carotovorum, 2 mM/L
Procedure, shortened: as §1

[3] = tested on: Pseudomonas fluorescens EL-2.1; assay: Agar-well diffusion, bactericidal activity; format: cell-based; details: Pseudomonas fluorescens, EL2.1, 2 mM/L
Procedure, shortened: as §1

[4] = tested on: Xanthomonas campestris B-610; assay: Agar-well diffusion, bactericidal activity; format: cell-based; details: Xanthomonas campestris
Procedure, shortened: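 Agar-well diffusion on GYCa agar (pH 7.2–7.4) seeded with bacterial suspension; 150 μL compound solution placed in 6-mm wells. Inhibition zone width measured after 36–40 h incubation.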

[5] = tested on: five representative phytopathogens; assay: Agar-well diffusion, bactericidal activity over the panel of phytopathogens; format: cell-based
Procedure, shortened: as §1

[6] = tested on: Fusarium oxysporum IBPPM 543; assay: Mycelial radial growth inhibition; format: cell-based; details: Fusarium oxysporum; for inhibition of growth at 1 µM: 1 nmol/mL; for inhibition of growth at 1 µM / inhibition of growth at 5 µM / inhibition of growth at 20 µM / inhibition of growth at 40 µM: read-out: Inhibition value, I (%); for inhibition of growth at 5 µM: 5 nmol/mL; for inhibition of growth at 20 µM: 20 nmol/mL; for inhibition of growth at 40 µM: 40 nmol/mL
Procedure, shortened: (§2)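 Compounds mixed into molten GPY agar at various concentrations; centre inoculated with a 5-mm mycelial plug from 10-day cultures and incubated at 27 °C. Colony diameter compared with untreated control until control plate was covered (usually 12 days); ≥4 replicates in two experiments.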

[7] = tested on: Phytophthora cactorum VKM F-985; assay: Mycelial radial growth inhibition; format: cell-based; details: for inhibition of growth at 2 µM: 2 nmol/mL; for inhibition of growth at 2 µM / inhibition of growth at 3 µM / inhibition of growth / inhibition of growth at 40 µM / inhibition of growth at 50 µM: read-out: Inhibition value, I (%); for inhibition of growth at 3 µM: 3 nmol/mL; for inhibition of growth: 27 nmol/mL; for inhibition of growth at 40 µM: 40 nmol/mL; for inhibition of growth at 50 µM: 50 nmol/mL
Procedure, shortened: as §2

[8] = Table S3, read-out: Inhibition zone width (mm), not less
[9] = IBPPM543, 72 h, age of the fungus 3 days
[10] = IBPPM543, 120 h, age of the fungus 5 days
[11] = IBPPM543, 168 h, age of the fungus 7 days
[12] = IBPPM543, 216 h, age of the fungus 9 days
[13] = Phytophthora cactorum, 72 h, age of the fungus 3 days
[14] = Phytophthora cactorum, 120 h, age of the fungus 5 days
[15] = Phytophthora cactorum, 168 h, age of the fungus 7 days
[16] = Phytophthora cactorum, 216 h, age of the fungus 9 days

`O=C(C[n+]1ccccc1)NN=C1C(=O)N(Cc2ccccc2F)c2ccc(F)cc21.[Cl-]` [Compound 5a, 1-(2-(2-(5-Fluoro-1-(2-fluorobenzyl)-2-oxoindolin-3-ylidene)hydrazinyl)-2-oxoethyl)pyridin-1-ium chloride] gave a zone of inhibition at 2000 µM (Micrococcus luteus B-109; B109, 2 mM/L, average of 3 experiments, read-out: width of the inhibition zone (mm), M. luteus) of 4 mm, a zone of inhibition at 2000 µM (Micrococcus luteus B-109; B109, Table S3, 2 mM/L, read-out: Inhibition zone width (mm), not less) of at least 4 mm and a zone of inhibition at 2000 µM ([1]; average of 3 experiments, read-out: width of the inhibition zone (mm), P. atrosepticum) of 6 mm. For the same compound, the zone of inhibition at 2000 µM [1, 8] was at least 6 mm, the zone of inhibition at 2000 µM ([2]; average of 3 experiments, read-out: width of the inhibition zone (mm), P. carotovorum subsp. carotovorum) was 3 mm and the zone of inhibition at 2000 µM [2, 8] was at least 3 mm. For the same compound, the zone of inhibition at 2000 µM ([3]; average of 3 experiments, read-out: width of the inhibition zone (mm), Ps. fluorescens) was 4 mm, the zone of inhibition at 2000 µM [3, 8] was at least 4 mm and the zone of inhibition at 2000 µM ([4]; B610, 2 mM/L, average of 3 experiments, read-out: width of the inhibition zone (mm), X. campestris) was 3.5 mm. The zone of inhibition at 2000 µM ([4]; B610, Table S3, 2 mM/L, read-out: Inhibition zone width (mm), not less) was at least 3 mm, the zone of inhibition at 2000 µM ([5]; 36 h, 2 mM solutions, dependent on the test system used, read-out: inhibition zone width (mm), range over the test systems) was 3 to 6 mm and the “bactericidal activity” value ([5]; Table S2) was “moderate bactericidal activity”. For the same compound, the inhibition of growth at 1 µM [6, 9] was 34%, the inhibition of growth at 5 µM [6, 9] was 39% and the inhibition of growth at 20 µM [6, 9] was 41%. For the same compound, the inhibition of growth at 40 µM [6, 9] was 52%, the EC50 ([6]; IBPPM543, 120 h, day 5, read-out: EC50, µg/mL at Day 5, F. oxysporum) was 13.8 µg/mL and the inhibition of growth at 1 µM [6, 10] was 25%. It also gave an inhibition of growth at 5 µM [6, 10] of 31%, an inhibition of growth at 20 µM [6, 10] of 45% and an inhibition of growth at 40 µM [6, 10] of 54%. For the same compound, the inhibition of growth at 1 µM [6, 11] was 20%, the inhibition of growth at 5 µM [6, 11] was 23% and the inhibition of growth at 20 µM [6, 11] was 42%. The inhibition of growth at 40 µM [6, 11] was 51%, the inhibition of growth at 1 µM [6, 12] was 7% and the inhibition of growth at 5 µM [6, 12] was 18%. For the same compound, the inhibition of growth at 20 µM [6, 12] was 23%, the inhibition of growth at 40 µM [6, 12] was 36% and the “antagonistic effect superior to that of N-cetylpyridinium chloride” value ([7]; 5 days of growth) was 2.3 times. The “antagonistic effect superior to that of fludioxonil” value ([7]; 5 days of growth) was 2.0 times, the inhibition of growth at 2 µM [7, 13] was 26% and the inhibition of growth at 3 µM [7, 13] was 32%. The inhibition of growth [7, 13] was 40%, the inhibition of growth at 40 µM [7, 13] was 47% and the inhibition of growth at 50 µM [7, 13] was 52%. For the same compound, the EC50 ([7]; Phytophthora cactorum, 120 h, day 5, read-out: EC50, µg/mL at Day 5, P. cactorum) was 15 µg/mL, the inhibition of growth at 2 µM [7, 14] was 20% and the inhibition of growth at 3 µM [7, 14] was 32%. The inhibition of growth [7, 14] was 44%, the inhibition of growth at 40 µM [7, 14] was 53% and the inhibition of growth at 50 µM [7, 14] was 62%. The inhibition of growth at 2 µM [7, 15] was 15%, the inhibition of growth at 3 µM [7, 15] was 28% and the inhibition of growth [7, 15] was 31%. It also gave an inhibition of growth at 40 µM [7, 15] of 43%, an inhibition of growth at 50 µM [7, 15] of 45% and an inhibition of growth at 2 µM [7, 16] of 8%. For the same compound, the inhibition of growth at 3 µM [7, 16] was 19%, the inhibition of growth [7, 16] was 25% and the inhibition of growth at 40 µM [7, 16] was 36%. The inhibition of growth at 50 µM [7, 16] was 38%, the “EC50, µg/mL at Day 5, P. cactorum” value ([7]; day 5) was 15.12 µg/mL and the melting point was 180 to 182 °C.
